The values below come from PubChem BioAssay (NCI).

Each structure is given as a SMILES string.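 Dose response: 5 concentrations. Exposure: 48 h. Format: 96-well plates. Endpoint: linear interpolation; highest concentration if not reached. The concentration for full growth arrest is given as TGI.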

Some test systems named below: CAKI-1 renal; HCT-15 colon; HS 578T breast; IGROV1 ovarian; NCI/ADR-RES ovarian; PC-3 prostate; SK-OV-3 ovarian; UACC-62 melanoma; HCC-2998 colon; NCI-H460 lung.
Assay in all cases: inhibition of tumour cell growth, NCI panel, 48 h

Turning to `CCOC(=O)C1=C(C)NC(c2ccccc2)=C(C(=O)OCc2ccccc2)C1C#Cc1ccccc1` (configuration not stated), the TGI in the experiment on CAKI-1 renal was 57.4 µM; in the experiment on HCT-15 colon, more than 100 µM; with HS 578T breast, more than 100 µM; with IGROV1 ovarian, more than 100 µM; in the experiment with NCI/ADR-RES ovarian, more than 100 µM; in the experiment with PC-3 prostate, more than 100 µM. The TGI in the experiment with SK-OV-3 ovarian and in the experiment on UACC-62 melanoma was more than 100 µM throughout.
With `O=C(Cn1cc(I)c(C(=O)NCC(O)CO)n1)NCC(O)CO` (configuration not stated), the TGI in the experiment on HCC-2998 colon, with HCT-15 colon, in the experiment on IGROV1 ovarian, with NCI-H460 lung, in the experiment with SK-OV-3 ovarian and with UACC-62 melanoma was more than 100 µM throughout.
Turning to `COc1ccc2nc3c(nc2c1)C(C)(C)C=C3c1ccc(Br)cc1`, the TGI with CAKI-1 renal, in the experiment with HCC-2998 colon, in the experiment on HCT-15 colon, with HS 578T breast, in the experiment on IGROV1 ovarian and in the experiment on NCI-H460 lung was more than 100 µM throughout. For the same compound, the TGI with NCI/ADR-RES ovarian and with PC-3 prostate was more than 100 µM each time.
In the case of `OC[C@H](O)[C@@H](OCc1ccccc1)[C@H](NCc1ccccc1)c1cccs1`, the TGI with CAKI-1 renal, in the experiment on HCT-15 colon, in the experiment with IGROV1 ovarian, in the experiment with NCI-H460 lung, with NCI/ADR-RES ovarian and in the experiment with PC-3 prostate was more than 100 µM in each case. Moreover, the TGI in the experiment on SK-OV-3 ovarian and in the experiment with UACC-62 melanoma was more than 100 µM throughout.
With `CCCC(CCC(=O)O)(CCC(=O)O)[N+](=O)[O-]`, the TGI in the experiment with CAKI-1 renal, in the experiment on HCT-15 colon, with HS 578T breast, in the experiment with IGROV1 ovarian, in the experiment on NCI-H460 lung and in the experiment with NCI/ADR-RES ovarian was more than 100 µM in each case. Besides, the TGI in the experiment with PC-3 prostate, in the experiment on SK-OV-3 ovarian and in the experiment on UACC-62 melanoma was more than 100 µM each time.
Turning to `Cc1ccc2c(=O)cc(-c3ccccc3)[nH]c2n1`, the TGI with CAKI-1 renal was more than 72.9 µM; in the experiment with HCC-2998 colon, 4.68 µM; in the experiment with HCT-15 colon it was 6.3 µM; in the experiment on IGROV1 ovarian, more than 100 µM; with NCI-H460 lung, more than 100 µM; in the experiment with NCI/ADR-RES ovarian, 0.31 µM. Further, the TGI in the experiment with PC-3 prostate was 26.7 µM; in the experiment on SK-OV-3 ovarian it was more than 21 µM.
`COc1ccccc1-c1nc[nH]c1-c1ccccc1OC`: the TGI in the experiment on CAKI-1 renal was more than 100 µM; in the experiment on HCT-15 colon it was more than 100 µM; in the experiment on IGROV1 ovarian it was more than 100 µM; in the experiment on NCI-H460 lung, more than 100 µM; in the experiment with NCI/ADR-RES ovarian, 61.8 µM; in the experiment on PC-3 prostate, more than 100 µM. Moreover, in the experiment with SK-OV-3 ovarian, the TGI was more than 100 µM.
Turning to `Cc1[nH]c(-c2ccccc2)c(O)c1C(=O)OC1CC(C)CCC1C(C)C` (configuration not stated), the TGI with CAKI-1 renal turned out to be 32.2 µM; with HCT-15 colon, 32.1 µM; in the experiment with HS 578T breast, 39 µM; with IGROV1 ovarian, 29 µM; with NCI-H460 lung it was 28.6 µM; in the experiment with NCI/ADR-RES ovarian, 28.2 µM. For the same compound, the TGI in the experiment with PC-3 prostate came out at 26.7 µM; in the experiment with SK-OV-3 ovarian it was 29.1 µM; with UACC-62 melanoma, 30.9 µM.
On to `CCc1cc2c(cc1O)CC[C@@H]1[C@@H]2CC[C@]2(C)[C@@H](O)CC[C@@H]12`, for which the TGI came to 20.8 µM with CAKI-1 renal; 24 µM in the experiment with HCC-2998 colon; 29.2 µM in the experiment on HCT-15 colon; 28.4 µM with IGROV1 ovarian; 20.9 µM in the experiment on NCI-H460 lung; 9.92 µM with NCI/ADR-RES ovarian. Further, the TGI is 37.3 µM with PC-3 prostate and 39.6 µM in the experiment on SK-OV-3 ovarian.
For `OC[C@@H](O)[C@H](O)[C@H](O)[C@@H](O)C1SCCCS1`, the TGI in the experiment on CAKI-1 renal, in the experiment with HCC-2998 colon, with HCT-15 colon, in the experiment with IGROV1 ovarian, with NCI-H460 lung and in the experiment on NCI/ADR-RES ovarian was more than 100 µM throughout. The TGI in the experiment with PC-3 prostate, in the experiment on SK-OV-3 ovarian and in the experiment with UACC-62 melanoma was more than 100 µM in each case.
In the case of `Nc1ccc2ncc(NCc3ccc(F)cc3)nc2c1`, the TGI with CAKI-1 renal, in the experiment on HCC-2998 colon, in the experiment with HCT-15 colon, in the experiment on NCI-H460 lung, in the experiment on SK-OV-3 ovarian and in the experiment with UACC-62 melanoma was more than 100 µM each time.
Turning to `COc1ccc(/C=N/NC(=O)NCCNCCO)cc1`, the TGI in the experiment with CAKI-1 renal, in the experiment on HCT-15 colon, in the experiment on IGROV1 ovarian, in the experiment with NCI-H460 lung, in the experiment on SK-OV-3 ovarian and in the experiment with UACC-62 melanoma was more than 100 µM throughout.
Take `CC(=O)Nc1ccc(S(=O)(=O)Nc2cnc3ccccc3n2)cc1`: the TGI in the experiment with CAKI-1 renal, in the experiment on HCC-2998 colon, with HCT-15 colon, with IGROV1 ovarian, with NCI-H460 lung and with SK-OV-3 ovarian was more than 100 µM in each case. The same compound returned a TGI in the experiment on UACC-62 melanoma of more than 100 µM.
Consider `O=C(NC1CCCCC1)N1CCNC1=S`, for which the TGI with CAKI-1 renal, in the experiment with HCC-2998 colon, with HCT-15 colon, in the experiment with HS 578T breast, in the experiment with IGROV1 ovarian and in the experiment with NCI-H460 lung was more than 100 µM in each case. The TGI with NCI/ADR-RES ovarian and with SK-OV-3 ovarian was more than 100 µM each time.
In the case of `CC(C)C(C=O)C(O)(C(F)(F)F)C(F)(F)F` (configuration not stated), the TGI in the experiment with CAKI-1 renal, in the experiment with HCC-2998 colon, in the experiment on HCT-15 colon, in the experiment on HS 578T breast, with NCI-H460 lung and with NCI/ADR-RES ovarian was more than 100 µM in each case. Moreover, the TGI with PC-3 prostate, with SK-OV-3 ovarian and with UACC-62 melanoma was more than 100 µM in each case.
Consider `CCN(CC)CCNC(=O)C1COc2ccc(-c3cc(=O)c4ccccc4o3)cc2O1` (configuration not stated), for which the TGI in the experiment with CAKI-1 renal worked out at 43.3 µM; with HCC-2998 colon it was 35.4 µM; in the experiment on HCT-15 colon, 31.8 µM; in the experiment with IGROV1 ovarian, 63.5 µM; in the experiment with NCI-H460 lung, 36.2 µM; in the experiment with NCI/ADR-RES ovarian, 45.8 µM. The TGI in the experiment on SK-OV-3 ovarian stood at 47 µM; in the experiment with UACC-62 melanoma, 31.9 µM.
Turning to `COC(=O)[C@@]1(Cc2ccc(OC(C)=O)cc2)Cc2cc3ccccc3n2N1`, the TGI in the experiment with CAKI-1 renal is more than 100 µM; in the experiment with HCT-15 colon, more than 100 µM; in the experiment with HS 578T breast, more than 100 µM; in the experiment on IGROV1 ovarian it was more than 100 µM; with NCI/ADR-RES ovarian, 96.4 µM; in the experiment on PC-3 prostate, more than 100 µM. For the same compound, the TGI in the experiment on SK-OV-3 ovarian and in the experiment with UACC-62 melanoma was more than 100 µM throughout.
